Assay results: patent US20100137275A1 (IPSEN PHARMA S.A.S., priority 2007, published 2010)
Where two headings read alike, the source gives them in different places.

Columns and labels:
[1] = molecular target: T1, purified recombinant Cdc25-C enzyme (MBP-Cdc25C protein) (Homo sapiens, UniProt P30307); experiment: Phosphatase activity of the purified recombinant Cdc25C enzyme (OMFP dephosphorylation, fluorescence); type: biochemical; conditions: OMFP 500 μM, 4 hours at 30° C.
T1 construct: made in house
T1 sequence (P30307 1-473): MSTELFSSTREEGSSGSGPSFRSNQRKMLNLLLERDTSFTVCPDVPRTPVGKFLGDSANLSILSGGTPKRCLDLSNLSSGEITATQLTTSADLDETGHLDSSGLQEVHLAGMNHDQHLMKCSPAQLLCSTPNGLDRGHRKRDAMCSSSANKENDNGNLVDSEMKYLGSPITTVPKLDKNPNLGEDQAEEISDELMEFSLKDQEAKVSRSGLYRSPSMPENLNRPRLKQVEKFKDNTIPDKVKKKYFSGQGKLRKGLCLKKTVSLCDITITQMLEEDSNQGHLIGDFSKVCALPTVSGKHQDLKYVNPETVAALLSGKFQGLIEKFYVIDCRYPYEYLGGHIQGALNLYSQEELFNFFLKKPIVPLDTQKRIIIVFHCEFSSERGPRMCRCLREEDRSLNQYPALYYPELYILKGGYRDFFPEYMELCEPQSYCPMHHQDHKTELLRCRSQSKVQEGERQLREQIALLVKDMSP
Experimental: The phosphatase activity of the MBP-Cdc25C protein is evaluated through its dephosphorylation of 3-O-methylfluorescein-phosphate (OMFP) to form 3-O-methylfluorescein (OMF), determining the fluorescence of the reaction product at 475 nm. This assay can be used to identify inhibitors of the recombinant Cdc25 enzyme. The preparation of the MBP-Cdc25C fusion protein is described in patent application PCT WO 01/44467.
The reaction is performed in 384-well plates in a final volume of 50 μl. The MBP-Cdc25C protein (prepared as described hereinabove) is stored in the following elution buffer: 20 mM Tris-HCl pH 7.4; 250 mM NaCl; 1 mM EDTA; 1 mM dithiothreitol (DTT); 10 mM maltose. It is diluted to a concentration of 60 μM in the following reaction buffer: 50 mM Tris-HCl pH 8.2; 50 mM NaCl; 1 mM DTT; 20% glycerol. The background noise is determined using with the buffer without addition of the enzyme. The products are tested at decreasing concentrations from 40 μM. The reaction is initiated by the addition of a solution OMFP to a final concentration of 500 μM (prepared immediately before use from a 12.5 mM stock solution in 100% DMSO (Sigma #M2629)). After 4 hours at 30° C. in a disposable 384-well plate, the fluorescence measured at OD 475 nm is read on a Victor^2 plate reader (EGG-Wallac). The concentration that produces 50% inhibition of the enzyme reaction is calculated from three independent experiments. Only the values that fall within the linear part of the sigmoid curve are used for the linear regression analysis.

[2] = system: DU145 (human prostate cancer cells); experiment: Anti-proliferative activity on DU-145 cell line (WST1 colorimetric test); type: cell-based; conditions: read-out: IC50 on the proliferation of the DU-145 cell line
Experimental: By way of an example, the effect of treating two human cell lines Mia-Paca2 and DU145 with the compounds of the examples described hereinbefore will be studied. The cell lines DU145 (human prostate cancer cells) and Mia-PaCa2 (human pancreas cancer cells) were obtained from the American Tissue Culture Collection (Rockville, Md., USA). A 96-well plate was inoculated on day 0 with cells placed in 80 μl of Dulbecco's modified Eagle's medium (Gibco-Brl, Cergy-Pontoise, France) with 10% heat-inactivated foetal calf serum (Gibco-Brl, Cergy-Pontoise, France), 50000 units/1 of penicillin and 50 mg/l of streptomycin (Gibco-Brl, Cergy-Pontoise, France), and 2 mM of glutamine (Gibco-Brl, Cergy-Pontoise, France). The cells were treated on day 1 with increasing concentrations of each test compound up to 10 μM for 96 hours. At the end of this period, cell proliferation is quantified by means of a colorimetric test based on cleavage of the tetrazolium salt WST1 by the mitochondrial dehydrogenases in the viable cells, resulting in formation of formazan (Boehringer Mannheim, Meylan, France). These tests are performed in duplicate with 8 determinations per concentration tested. For each compound to be tested, the values within the linear part of the sigmoid curve were subjected to linear regression analysis and used to estimate the IC50 inhibitory concentration. The products are solubilised in dimethylsulfoxide (DMSO) at a concentration of 10^−2 M and used in culture with a final DMSO concentration of 0.1%.

[3] = DU-145, 96 h, 96 hours treatment

IC50 [1] | melting point | IC50 [2, 3] | SMILES | IC50 ([2]; DU-145, 96 hours treatment)
≤ 1 µM | 76 to 78 °C | ≤ 5 µM | CN(CCNC(=S)Nc1ccc(Cl)cc1)CCNc1cc(N2CCCCC2)nc(N2CCCCC2)n1 [Example 69, N-(4-chlorophenyl)-N′-{2-[{2-[(2,6-dipiperidin-1-ylpyrimidin-4-yl)amino]ethyl}(methyl)amino]ethyl}thiourea] | 
 | 87 to 89 °C | ≤ 5 µM | CN(CCNC(=S)Nc1ccc(C(F)(F)F)cc1)CCNc1cc(N2CCCC2)nc(N2CCCC2)n1 [Example 25, N-{2-[{2-[(2,6-dipyrrolidin-1-ylpyrimidin-4-yl)amino]ethyl}(methyl)amino]ethyl}-N′-[4-(trifluoromethyl)phenyl]thiourea] | 
≤ 5 µM | 115 to 117 °C | ≤ 5 µM | CN(CCNC(=S)Nc1ccc(F)cc1)CCNc1cc(N2CCCC2)nc(N2CCCC2)n1 [Example 24, N-{2-[{2-[(2,6-dipyrrolidin-1-ylpyrimidin-4-yl)amino]ethyl}(methyl)amino]ethyl}-N′-(4-fluorophenyl)thiourea] | 
≤ 5 µM |  | ≤ 5 µM | CN(CCNC(=S)Nc1ccc(Oc2ccc([N+](=O)[O-])cc2)cc1)CCNc1cc(N2CCCC2)nc(N2CCCC2)n1 [Example 45, N-{2-[{2-[(2,6-dipyrrolidin-1-ylpyrimidin-4-yl)amino]ethyl}(methyl)amino]ethyl}-N′-[4-(4-nitrophenoxy)phenyl]thiourea] | 
≤ 5 µM | 107 to 109 °C |  | CN(CCNC(=O)NC(C)(C)C)CCNc1cc(N2CCCC2)nc(N2CCCC2)n1 [Example 9, N-(tert-butyl)-N′-{2-[{2-[(2,6-dipyrrolidin-1-ylpyrimidin-4-yl)amino]ethyl}(methyl)amino]ethyl}urea] | 
≤ 1 µM | 103 to 105 °C |  | CN(CCNC(=O)NCc1ccco1)CCNc1cc(N2CCCC2)nc(N2CCCC2)n1 [Example 14, N-{2-[{2-[(2,6-dipyrrolidin-1-ylpyrimidin-4-yl)amino]ethyl}(methyl)amino]ethyl}-N′-(2-furylmethyl)urea] | 
≤ 5 µM | 117 to 119 °C |  | CN(CCNC(=S)Nc1ccc(Cl)c(C(F)(F)F)c1)CCNc1cc(N2CCCC2)nc(N2CCCC2)n1 [Example 54, N-[4-chloro-3-(trifluoromethyl)phenyl]-N′-{2-[{2-[(2,6-dipyrrolidin-1-ylpyrimidin-4-yl)amino]ethyl}(methyl)amino]ethyl}thiourea] | 
≤ 1 µM | 118 to 120 °C |  | CN(CCNC(=S)Nc1cccc(F)c1)CCNc1cc(N2CCCC2)nc(N2CCCC2)n1 [Example 39, N-{2-[{2-[(2,6-dipyrrolidin-1-ylpyrimidin-4-yl)amino]ethyl}(methyl)amino]ethyl}-N′-(3-fluorophenyl)thiourea] | 
≤ 1 µM | 129 °C |  | Cc1cc(C)nc(NS(=O)(=O)c2ccc(NC(=S)NCCN(C)CCNc3cc(N4CCCC4)nc(N4CCCC4)n3)cc2)n1 [Example 50, N-(4,6-dimethylpyrimidin-2-yl)-4-{[({2-[{2-[(2,6-dipyrrolidin-1-ylpyrimidin-4-yl)amino]ethyl}(methyl)amino]ethyl}amino)carbonothioyl]amino}benzenesulfonamide] | 
≤ 1 µM | 125 to 127 °C |  | CN(CCNC(=S)Nc1cccc([N+](=O)[O-])c1)CCNc1cc(N2CCCC2)nc(N2CCCC2)n1 [Example 49, N-{2-[{2-[(2,6-dipyrrolidin-1-ylpyrimidin-4-yl)amino]ethyl}(methyl)amino]ethyl}-N′-(3-nitrophenyl)thiourea] | 
≤ 5 µM | 124 to 126 °C |  | CN(CCNC(=S)Nc1cc(F)cc(F)c1)CCNc1cc(N2CCCC2)nc(N2CCCC2)n1 [Example 41, N-(3,5-difluorophenyl)-N′-{2-[{2-[(2,6-dipyrrolidin-1-ylpyrimidin-4-yl)amino]ethyl}(methyl)amino]ethyl}thiourea] | 
≤ 5 µM | 67 to 69 °C |  | CN(CCN)CCNc1cc(N2CCCC2)nc(N2CCCC2)n1 [Example 1, N-{2-[(2,6-dipyrrolidin-1-ylpyrimidin-4-yl)amino]ethyl}-N-methylethane-1,2-diamine] | 
≤ 5 µM | 148 to 150 °C |  | CN(CCNC(=S)Nc1ccc(Cl)c(Cl)c1)CCNc1cc(N2CCCC2)nc(N2CCCC2)n1 [Example 55, N-(3,4-dichlorophenyl)-N′-{2-[{2-[(2,6-dipyrrolidin-1-ylpyrimidin-4-yl)amino]ethyl}(methyl)amino]ethyl}thiourea] | 
≤ 1 µM | 133 to 135 °C |  | CN(CCNC(=S)Nc1ccc(F)c(F)c1)CCNc1cc(N2CCCC2)nc(N2CCCC2)n1 [Example 67, N-(3,4-difluorophenyl)-N′-{2-[{2-[(2,6-dipyrrolidin-1-ylpyrimidin-4-yl)amino]ethyl}(methyl)amino]ethyl}thiourea] | 
≤ 1 µM | 140 °C |  | CN(CCNC(=S)Nc1ccc(S(N)(=O)=O)cc1)CCNc1cc(N2CCCC2)nc(N2CCCC2)n1 [Example 61, 4-{[({2-[{2-[(2,6-dipyrrolidin-1-ylpyrimidin-4-yl)amino]ethyl}(methyl)amino]ethyl}amino)carbonothioyl]amino}benzenesulfonamide] | 
≤ 1 µM | 82 to 84 °C |  | CCNC(=S)NCCN(C)CCNc1cc(N2CCCC2)nc(N2CCCC2)n1 [Example 28, N-{2-[{2-[(2,6-dipyrrolidin-1-ylpyrimidin-4-yl)amino]ethyl}(methyl)amino]ethyl}-N′-ethylthiourea] | 
≤ 1 µM | 97 to 99 °C |  | CN(CCNC(=S)Nc1ccc(Sc2ncc(C(F)(F)F)cc2Cl)cc1)CCNc1cc(N2CCCC2)nc(N2CCCC2)n1 [Example 52, N-(4-{[3-chloro-5-(trifluoromethyl)pyridin-2-yl]thio}phenyl)-N′-{2-[{2-[(2,6-dipyrrolidin-1-ylpyrimidin-4-yl)amino]ethyl}(methyl)amino]ethyl}thiourea] | 
≤ 1 µM | 124 to 126 °C |  | CN(CCNC(=S)Nc1ccc(F)cc1F)CCNc1cc(N2CCCC2)nc(N2CCCC2)n1 [Example 40, N-(2,4-difluorophenyl)-N′-{2-[{2-[(2,6-dipyrrolidin-1-ylpyrimidin-4-yl)amino]ethyl}(methyl)amino]ethyl}thiourea] | 
≤ 5 µM | 80 to 82 °C |  | S=C(NCCCCCNc1cc(N2CCCC2)nc(N2CCCC2)n1)Nc1ccc(Cl)cc1 [Example 58, N-(4-chlorophenyl)-N′-{5-[(2,6-dipyrrolidin-1-ylpyrimidin-4-yl)amino]pentyl}thiourea] | 
≤ 1 µM | 102 to 104 °C |  | CNS(=O)(=O)c1ccc(NC(=S)NCCN(C)CCNc2cc(N3CCCC3)nc(N3CCCC3)n2)cc1 [Example 59, 4-{[({2-[{2-[(2,6-dipyrrolidin-1-ylpyrimidin-4-yl)amino]ethyl}(methyl)amino]ethyl}amino)carbonothioyl]amino}-N-methylbenzenesulfonamide] | 

SMILES | IC50 [1] | melting point | IC50 [2, 3] | IC50 ([2]; DU-145, 96 hours treatment)
CN(CCNC(=O)N[C@@H]1CCc2ccccc2C1)CCNc1cc(N2CCCC2)nc(N2CCCC2)n1 [Example 11] | ≤ 5 µM |  |  | ≤ 5 µM
